Each compound was assayed on LPS in E. coli culture supernatant (E. coli NIHJ JC-2 strain) (assay: Inhibitory effect on LPS in E. coli culture supernatant). Conditions: relative ratio to the inhibitory ratio of the compound of Example 1 as 1.0; compound 100 μM, 24 hr.
Format: cell-based
Description: One platinum loop of E. coli NIHJ JC-2 strain was inoculated into a test tube containing heart infusion broth (HIB, 5 mL) and cultured for about 24 hr. The bacterial culture broth was washed three times by centrifugation (3000 rpm, 15 min, 20° C., TOMY Seiko, RL-131) using 10 mL of fresh HIB medium for one cycle of washing. The washed bacteria were prepared to an about 10^7 colony forming unit (CFU)/mL with a fresh HIB medium, and 0.2 mL of the prepared bacterial suspension was inoculated into an Erlenmeyer flask containing a fresh HIB medium (18.8 mL) (i.e., to final bacterial concentration of about 10^5 CFU/mL). A solution (1 mL) of each compound prepared to a concentration of 2 mM (final concentration of compound 100 μM) was added to the culture broth containing the bacteria. Using a shaker (RGR-1 type, manufactured by IWASHIYA, Ltd.), shake culture was conducted at 37° C., and 2 mL of culture broth after 24 hr was sampled. The sampled culture broth was filtered (DISMIC, 0.45 μm, Advantech Toyo) and diluted 10^5-fold with sterile distilled water. The resulting suspension (200 μL) was added to a limulus reagent (LAL ES, Wako Pure Chemical Industries) and LPS concentration was measured using Toxinometer MT-285 (Wako Pure Chemical Industries) preheated to 37° C.
The LPS inhibitory ratio of the compound was calculated as a ratio of the LPS concentration of the compound addition group relative to the LPS concentration of the compound non-addition group. […] The inhibitory ratio of each compound is shown in the following in Table 1 as a relative ratio to the inhibitory ratio of the compound of Example 1 as 1.0.

| SMILES | inhibitory effect of compound on LPS in E. coli culture supernatant, relative ratio |
| --- | --- |
| CNC(=O)[C@H](Cc1ccc(OCCCCCS(=O)(=O)[O-])cc1)NC(=O)[C@H](CC(C)C)C(CN1C(=O)c2ccccc2C1=O)C(=O)NO.[Na+] (single isomer, unassigned) [Example 12, 5-methyl-3(R)-{1(S)-methylcarbamoyl-2-[4-(5-sulfopentoxy)phenyl]ethylcarbamoyl}-2(R or S)-phthalimidomethylhexanohydroxamic acid sodium salt] | 0.85 |
| CC(C)C[C@@H](C(=O)N[C@@H](Cc1ccccc1)C(=O)NCS(=O)(=O)[O-])C(Cc1ccc2ccccc2c1)C(=O)NO.[Na+] (single isomer, unassigned) [Example 25, 5-methyl-2(R or S)-(2-naphthylmethyl)-3(R)-[2-phenyl-1(S)-(sulfomethylcarbamoyl)ethylcarbamoyl]hexanohydroxamic acid sodium salt] | 0.33 |
| CC(C)C[C@@H](C(=O)N[C@@H](Cc1ccccc1)C(=O)NCCS(=O)(=O)[O-])C(Cc1ccc2ccccc2c1)C(=O)NO.[Na+] (single isomer, unassigned) [Example 26, 5-methyl-2(R or S)-(2-naphthylmethyl)-3(R)-[2-phenyl-1(S)-(2-sulfoethylcarbamoyl)ethylcarbamoyl]hexanohydroxamic acid sodium salt] | 0.54 |

Same assay, conditions: relative ratio to the inhibitory ratio of the compound of Example 1 as 1.0; compound 100 μM, 24 hr; sodium salt

| SMILES | inhibitory effect of compound on LPS in E. coli culture supernatant, relative ratio |
| --- | --- |
| CNC(=O)[C@H](Cc1ccc(OCCCS(=O)(=O)[O-])cc1)NC(=O)[C@@H](CC(C)C)C(CN1C(=O)c2ccccc2C1=O)C(=O)NO.[Na+] (single isomer, unassigned) [Example 9, 5-methyl-3(S)-{1(S)-methylcarbamoyl-2-[4-(3-sulfopropoxy)phenyl]ethylcarbamoyl}-2(R or S)-phthalimidomethylhexanohydroxamic acid sodium salt] | 0.51 |
| CNC(=O)[C@H](Cc1ccc(OCCCS(=O)(=O)[O-])cc1)NC(=O)[C@@H](CC(C)C)C(CN1C(=O)c2ccccc2C1=O)C(=O)NO.[Na+] (single isomer, unassigned) [Example 7, 5-methyl-3(S)-{1(S)-methylcarbamoyl-2-[4-(3-sulfopropoxy)phenyl]ethylcarbamoyl}-2(R or S)-phthalimidomethylhexanohydroxamic acid sodium salt] | 0.79 |
| CNC(=O)[C@@H](Cc1ccc(OCCCS(=O)(=O)[O-])cc1)NC(=O)[C@H](CC(C)C)C(CN1C(=O)c2ccccc2C1=O)C(=O)NO.[Na+] (single isomer, unassigned) [Example 5, 5-methyl-3(R)-{1(R)-methylcarbamoyl-2-[4-(3-sulfopropoxy)phenyl]ethylcarbamoyl}-2(R or S)-phthalimidomethylhexanohydroxamic acid sodium salt] | 0.80 |
| CNC(=O)[C@@H](Cc1ccc(OCCCS(=O)(=O)[O-])cc1)NC(=O)[C@@H](CC(C)C)C(CN1C(=O)c2ccccc2C1=O)C(=O)NO.[Na+] (single isomer, unassigned) [Example 6, 5-methyl-3(S)-{1(R)-methylcarbamoyl-2-[4-(3-sulfopropoxy)phenyl]ethylcarbamoyl}-2(R or S)-phthalimidomethylhexanohydroxamic acid sodium salt] | 0.69 |
| CNC(=O)[C@@H](Cc1ccc(OCCCS(=O)(=O)[O-])cc1)NC(=O)[C@@H](CC(C)C)C(CN1C(=O)c2ccccc2C1=O)C(=O)NO.[Na+] (single isomer, unassigned) [Example 8, 5-methyl-3(S)-{1(R)-methylcarbamoyl-2-[4-(3-sulfopropoxy)phenyl]ethylcarbamoyl}-2(R or S)-phthalimidomethylhexanohydroxamic acid sodium salt] | 0.60 |

From patent US6989401B2, “Sulfonic acid derivatives of hydroxamic acids and their use as medicinal products” (Mitsubishi Pharma Corporation, priority 2000, dated 2006)
